Data taken from patent publication US20150105252A1, “SUBSTITUTED PYRAZOLES AS HERBICIDES” (E I DU PONT DE NEMOURS AND COMPANY, priority 2013, published 2015).

Key:
field violet [1] = assay: Test D preemergence; assay type: in vivo, Viola arvensis; details: scale 0 to 100
Text: (§1) Seeds of plant species selected from bluegrass (annual bluegrass, Poa annua), blackgrass (Alopecurus myosuroides), canarygrass (littleseed canarygrass, Phalaris minor), chickweed (common chickweed, Stellaria media), galium (catchweed bedstraw, Galium aparine), bromegrass, downy (downy bromegrass, Bromus tectorum), field poppy (Papaver rhoeas), field violet (Viola arvensis), foxtail, green (green foxtail, Setaria viridis), deadnettle (henbit deadnettle, Lamium amplexicaule), ryegrass, Italian (Italian ryegrass, Lolium multiflorum), kochia (Kochia scoparia), lambsquarters (Chenopodium album), oilseed rape (Brassica napus), pigweed (redroot pigweed, Amaranthus retroflexus), chamomile (scentless chamomile, Matricaria inodora), speedwell (bird's-eye speedwell, Veronica persica), barley, spring (spring barley, Hordeum vulgare), wheat, spring (spring wheat, Triticum aestivum), buckwheat, wild (wild buckwheat, Polygonum convolvulus), mustard, wild (wild mustard, Sinapis arvensis), oat, wild (wild oat, Avena fatua), radish, wild (wild radish, Raphanus raphanistrum), windgrass (Apera spica-venti), Russian thistle (Salsola kali), barley, winter (winter barley, Hordeum vulgare), and wheat, winter (winter wheat, Triticum aestivum) were planted into a silt loam soil and treated preemergence with test chemicals formulated in a non-phytotoxic solvent mixture which included a surfactant.
(§2) At the same time, these species were planted in pots containing Redi-Earth® planting medium (Scotts Company, 14111 Scottslawn Road, Marysville, Ohio 43041) comprising spaghnum peat moss, vermiculite, wetting agent and starter nutrients and treated with postemergence applications of the test chemicals formulated in the same manner. Plants ranged in height from 2 to 18 cm (1- to 4-leaf stage). Treated plants and controls were maintained in a controlled growth environment for 14 to 21 days after which time all species were compared to controls and visually evaluated. Plant response ratings, summarized in Table D, are based on a scale of 0 to 100 where 0 is no effect and 100 is complete control. A dash (-) response means no test result.

speedwell = assay: Test D preemergence; assay type: in vivo, Veronica persica; details: scale 0 to 100
Text: as §1, §2

blackgrass = assay: Test D postemergence; assay type: in vivo, Alopecurus myosuroides; details: scale 0 to 100
Text: as §1, §2

canarygrass = assay: Test D postemergence; assay type: in vivo, Phalaris minor; details: scale 0 to 100
Text: as §1, §2

field violet [2] = assay: Test D postemergence; assay type: in vivo, Viola arvensis; details: scale 0 to 100
Text: as §1, §2

lambsquarters = assay: Test D postemergence; assay type: in vivo, Chenopodium album; details: scale 0 to 100
Text: as §1, §2

oilseed rape = assay: Test D postemergence; assay type: in vivo, Brassica napus; details: scale 0 to 100
Text: as §1, §2

chamomile = assay: Test D postemergence; assay type: in vivo, Matricaria inodora; details: scale 0 to 100
Text: as §1, §2

barley, spring = assay: Test D postemergence; assay type: in vivo, Hordeum vulgare; details: scale 0 to 100
Text: as §1, §2

barley, winter = assay: Test D postemergence; assay type: in vivo, Hordeum vulgare; details: scale 0 to 100
Text: as §1, §2

mustard, wild = assay: Test D postemergence; assay type: in vivo, Sinapis arvensis; details: scale 0 to 100
Text: as §1, §2

crabgrass, Brazil = assay: Test F preemergence; assay type: in vivo, Digitaria horizontalis
Text: (§3) Seeds of plant species selected from corn (Zea mays), soybean (Glycine max), velvetleaf (Abutilon theophrasti), lambsquarters (Chenopodium album), wild poinsettia (Euphorbia heterophylla), pigweed, palmer (palmer pigweed, Amaranthus palmeri), common waterhemp (Amaranthus rudis), surinam grass (Brachiaria decumbens), large crabgrass (Digitaria sanguinalis), crabgrass, Brazil (Brazilian crabgrass, Digitaria horizontalis), fall panicum (Panicum dichotomiflorum), giant foxtail (Setaria faberii), green foxtail (Setaria viridis), goosegrass (Eleusine indica), johnsongrass (Sorghum halepense), common ragweed (Ambrosia elation), barnyardgrass (Echinochloa crus-galli), southern sandbur (Cenchrus echinatus), arrowleaf sida (Sida rhombifolia), Italian ryegrass (Lolium multiflorum), dayflower, VA (Virginia (VA) dayflower, Commelina virginica), field bindweed (Convolvulus arvensis), cocklebur (common cocklebur, Xanthium strumarium), morningglory (Ipomoea coccinea), nightshade (eastern black nightshade, Solanum ptycanthum), kochia (Kochia scoparia), yellow nutsedge (Cyperus esculentus), and hairy beggarticks (Bidens pilosa), were planted into a silt loam soil and treated preemergence with test chemicals formulated in a non-phytotoxic solvent mixture which included a surfactant.
(§4) At the same time, plants from these crop and weed species and also horseweed (Canada horseweed, Conyza canadensis), smartweed (ladysthumb smartweed, Polygonum persicaria), waterhemp_RES1, (ALS & Triazine resistant common waterhemp, Amaranthus rudis), and waterhemp_RES2, (ALS & HPPD resistant common waterhemp, Amaranthus rudis) were treated with postemergence applications of test chemicals formulated in the same manner. Plants ranged in height from 2 to 18 cm for postemergence treatments (1- to 4-leaf stage). Treated plants and controls were maintained in a greenhouse for 14 to 21 days, after which time all species were compared to controls and visually evaluated. Plant response ratings, summarized in Table F, are based on a scale of 0 to 100 where 0 is no effect and 100 is complete control. A dash (-) response means no test result.

barnyardgrass = assay: Test F preemergence; assay type: in vivo, Echinochloa crus-galli
Text: as §3, §4

morningglory = assay: Test F preemergence; assay type: in vivo, Ipomoea coccinea
Text: as §3, §4

[3] = Preemergence, 31 g ai/ha, scale 0 to 100
[4] = Preemergence, 62 g ai/ha, scale 0 to 100
[5] = Preemergence, 125 g ai/ha, scale 0 to 100
[6] = preemergence, 8 g ai/ha, scale 0 to 100, 100 is complete control
[7] = preemergence, 16 g ai/ha, scale 0 to 100, 100 is complete control
[8] = Preemergence, 16 g ai/ha, scale 0 to 100
[9] = Preemergence, 250 g ai/ha, scale 0 to 100

## CCc1cc(C(=O)NC(C)C)nn1Cc1ccnc(C(F)(F)F)c1 [Compound 103]
Field violet [1]; 31 g ai/ha
  Plant response rating, Field Violet: 95
Field violet [1]; 62 g ai/ha
  Plant response rating, Field Violet: 100
Field violet [1]; 125 g ai/ha
  Plant response rating, Field Violet: 100
Field violet [1]; 250 g ai/ha
  Plant response rating, Field Violet: 100
speedwell; 31 g ai/ha
  Plant response rating, Speedwell: 70
speedwell; 62 g ai/ha
  Plant response rating, Speedwell: 100
speedwell; 125 g ai/ha
  Plant response rating, Speedwell: 100
speedwell; 250 g ai/ha
  Plant response rating, Speedwell: 100
blackgrass; Postemergence, 31 g ai/ha
  Blackgrass plant response rating: 5
blackgrass; Postemergence, 125 g ai/ha
  Blackgrass plant response rating: 20
blackgrass; Postemergence, 250 g ai/ha
  Blackgrass plant response rating: 35
blackgrass; postemergence, 62 g ai/ha
  Blackgrass plant response rating: 10
canarygrass; Postemergence, 31 g ai/ha
  Canarygrass plant response rating: 5
canarygrass; Postemergence, 125 g ai/ha
  Canarygrass plant response rating: 10
canarygrass; Postemergence, 250 g ai/ha
  Canarygrass plant response rating: 10
canarygrass; postemergence, 62 g ai/ha
  Canarygrass plant response rating: 5
Field violet [2]; Postemergence, 31 g ai/ha
  Field Violet plant response rating: 35
Field violet [2]; Postemergence, 125 g ai/ha
  Field Violet plant response rating: 60
Field violet [2]; Postemergence, 250 g ai/ha
  Field Violet plant response rating: 60
Field violet [2]; postemergence, 62 g ai/ha
  Field Violet plant response rating: 55
lambsquarters; Postemergence, 31 g ai/ha
  Lambsquarters plant response rating: 35
lambsquarters; Postemergence, 125 g ai/ha
  Lambsquarters plant response rating: 40
lambsquarters; Postemergence, 250 g ai/ha
  Lambsquarters plant response rating: 60
lambsquarters; postemergence, 62 g ai/ha
  Lambsquarters plant response rating: 30
Oilseed rape; Postemergence, 31 g ai/ha
  Oilseed Rape plant response rating: 25
Oilseed rape; Postemergence, 125 g ai/ha
  Oilseed Rape plant response rating: 35
Oilseed rape; Postemergence, 250 g ai/ha
  Oilseed Rape plant response rating: 45
Oilseed rape; postemergence, 62 g ai/ha
  Oilseed Rape plant response rating: 35
chamomile; Postemergence, 31 g ai/ha
  Chamomile plant response rating: 10
chamomile; Postemergence, 125 g ai/ha
  Chamomile plant response rating: 30
chamomile; Postemergence, 250 g ai/ha
  Chamomile plant response rating: 60
chamomile; postemergence, 62 g ai/ha
  Chamomile plant response rating: 30
barley, spring; Postemergence, 31 g ai/ha
  Barley, Spring plant response rating: 0
barley, spring; Postemergence, 125 g ai/ha
  Barley, Spring plant response rating: 10
barley, spring; Postemergence, 250 g ai/ha
  Barley, Spring plant response rating: 15
barley, spring; postemergence, 62 g ai/ha
  Barley, Spring plant response rating: 0
barley, winter; Postemergence, 31 g ai/ha
  Barley, Winter plant response rating: 0
barley, winter; Postemergence, 125 g ai/ha
  Barley, Winter plant response rating: 5
barley, winter; Postemergence, 250 g ai/ha
  Barley, Winter plant response rating: 15
barley, winter; postemergence, 62 g ai/ha
  Barley, Winter plant response rating: 5
mustard, wild; Postemergence, 31 g ai/ha
  Mustard, Wild plant response rating: 25
mustard, wild; Postemergence, 125 g ai/ha
  Mustard, Wild plant response rating: 60
mustard, wild; Postemergence, 250 g ai/ha
  Mustard, Wild plant response rating: 60
mustard, wild; postemergence, 62 g ai/ha
  Mustard, Wild plant response rating: 45

## CCOc1cc(C(=O)NCC(F)(F)F)nn1Cc1ccnc(C(F)(F)F)c1 [Compound 104]
crabgrass, Brazil; [3]
  Plant response rating, Crabgrass, Brazil: 95
crabgrass, Brazil; [4]
  Plant response rating, Crabgrass, Brazil: 100
crabgrass, Brazil; [5]
  Plant response rating, Crabgrass, Brazil: 100
crabgrass, Brazil; [6]
  Plant response rating, Crabgrass, Brazil: 5
crabgrass, Brazil; [7]
  Plant response rating, Crabgrass, Brazil: 10
barnyardgrass; [3]
  Plant response rating, Barnyardgrass: 50
barnyardgrass; [4]
  Plant response rating, Barnyardgrass: 100
barnyardgrass; [5]
  Plant response rating, Barnyardgrass: 100
barnyardgrass; [6]
  Plant response rating, Barnyardgrass: 10
barnyardgrass; [7]
  Plant response rating, Barnyardgrass: 20
morningglory; [3]
  Plant response rating, Morningglory: 70
morningglory; [4]
  Plant response rating, Morningglory: 80
morningglory; [5]
  Plant response rating, Morningglory: 100
morningglory; [6]
  Plant response rating, Morningglory: 0
morningglory; [7]
  Plant response rating, Morningglory: 0

## CCNC(=O)c1cc(CCCl)n(Cc2ccnc(C(F)(F)F)c2)n1 [Compound 179]
crabgrass, Brazil; [3]
  Plant response rating, Crabgrass, Brazil: 75
crabgrass, Brazil; [4]
  Plant response rating, Crabgrass, Brazil: 100
crabgrass, Brazil; [5]
  Plant response rating, Crabgrass, Brazil: 100
crabgrass, Brazil; [6]
  Plant response rating, Crabgrass, Brazil: 0
barnyardgrass; [3]
  Plant response rating, Barnyardgrass: 15
barnyardgrass; [4]
  Plant response rating, Barnyardgrass: 20
barnyardgrass; [5]
  Plant response rating, Barnyardgrass: 50
barnyardgrass; [6]
  Plant response rating, Barnyardgrass: 0
morningglory; [3]
  Plant response rating, Morningglory: 40
morningglory; [4]
  Plant response rating, Morningglory: 60
morningglory; [5]
  Plant response rating, Morningglory: 70
morningglory; [6]
  Plant response rating, Morningglory: 0

## CCNC(=O)c1cc(CC)n(Cc2ccnc(C(F)(F)F)c2)n1 [Compound 196]
crabgrass, Brazil; [8]
  Plant response rating, Crabgrass, Brazil: 100
crabgrass, Brazil; [4]
  Plant response rating, Crabgrass, Brazil: 100
crabgrass, Brazil; [5]
  Plant response rating, Crabgrass, Brazil: 100
crabgrass, Brazil; [6]
  Plant response rating, Crabgrass, Brazil: 30
crabgrass, Brazil; [7]
  Plant response rating, Crabgrass, Brazil: 75
barnyardgrass; [8]
  Plant response rating, Barnyardgrass: 0
barnyardgrass; [4]
  Plant response rating, Barnyardgrass: 10
barnyardgrass; [5]
  Plant response rating, Barnyardgrass: 65
barnyardgrass; [6]
  Plant response rating, Barnyardgrass: 0
barnyardgrass; [7]
  Plant response rating, Barnyardgrass: 0
morningglory; [8]
  Plant response rating, Morningglory: 35
morningglory; [4]
  Plant response rating, Morningglory: 70
morningglory; [5]
  Plant response rating, Morningglory: 80
morningglory; [6]
  Plant response rating, Morningglory: 5
morningglory; [7]
  Plant response rating, Morningglory: 10

## Cc1cc(C(=O)NC(C)C)nn1Cc1ccnc(C(F)(F)F)c1 [Compound 197]
crabgrass, Brazil; [8]
  Plant response rating, Crabgrass, Brazil: 85
crabgrass, Brazil; [4]
  Plant response rating, Crabgrass, Brazil: 100
crabgrass, Brazil; [5]
  Plant response rating, Crabgrass, Brazil: 100
crabgrass, Brazil; [6]
  Plant response rating, Crabgrass, Brazil: 0
crabgrass, Brazil; [7]
  Plant response rating, Crabgrass, Brazil: 75
barnyardgrass; [8]
  Plant response rating, Barnyardgrass: 0
barnyardgrass; [4]
  Plant response rating, Barnyardgrass: 0
barnyardgrass; [5]
  Plant response rating, Barnyardgrass: 0
barnyardgrass; [6]
  Plant response rating, Barnyardgrass: 0
barnyardgrass; [7]
  Plant response rating, Barnyardgrass: 0
morningglory; [8]
  Plant response rating, Morningglory: 20
morningglory; [4]
  Plant response rating, Morningglory: 30
morningglory; [5]
  Plant response rating, Morningglory: 60
morningglory; [6]
  Plant response rating, Morningglory: 0
morningglory; [7]
  Plant response rating, Morningglory: 10

## CCc1cc(C(=O)NC2CC2)nn1Cc1ccnc(OCC(F)(F)F)c1 [Compound 200]
crabgrass, Brazil; [9]
  Plant response rating, Crabgrass, Brazil: 100
crabgrass, Brazil; [8]
  Plant response rating, Crabgrass, Brazil: 35
crabgrass, Brazil; [4]
  Plant response rating, Crabgrass, Brazil: 95
crabgrass, Brazil; [5]
  Plant response rating, Crabgrass, Brazil: 100
crabgrass, Brazil; [7]
  Plant response rating, Crabgrass, Brazil: 0
barnyardgrass; [9]
  Plant response rating, Barnyardgrass: 50
barnyardgrass; [8]
  Plant response rating, Barnyardgrass: 15
barnyardgrass; [4]
  Plant response rating, Barnyardgrass: 25
barnyardgrass; [5]
  Plant response rating, Barnyardgrass: 20
barnyardgrass; [7]
  Plant response rating, Barnyardgrass: 0
morningglory; [9]
  Plant response rating, Morningglory: 75
morningglory; [8]
  Plant response rating, Morningglory: 0
morningglory; [4]
  Plant response rating, Morningglory: 10
morningglory; [5]
  Plant response rating, Morningglory: 60
morningglory; [7]
  Plant response rating, Morningglory: 0
